{
  "source": "patent US20050112573A1",
  "about": "“Method of detecting toxic substance” (priority 2001, published 2005)",
  "tested_on": "yeast genes (level of expressed mRNA)",
  "test": "DNA chip analysis of expressed mRNA of yeast genes after 2 h culture with a toxic chemical substance",
  "assay_type": "cell-based, Saccharomyces cerevisiae S288C",
  "conditions": "for The level of expressed mRNA in the presence of chemical substance/ (ratio to absence of chemical substance): stress protein genes, DNA chip",
  "in_short": "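S. cerevisiae S288C grown at 25° C in YPD; toxicant added at log phase at growth-inhibitory, non-lethal levels for 2 h, untreated cells as control. Poly(A) mRNA reverse-transcribed with Cy3/Cy5-dUTP, hybridized to whole-genome chip at 65° C >12 h; value is fluorescence ratio versus untreated.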",
  "data": [
    {"smiles": "CCCCC[C@H](O)CC(=O)CCc1ccc(O)c(OC)c1", "note": "[(13), gingerol]", "values": [
      {"measurement": "The level of expressed mRNA in the presence of chemical substance/ in its absence, gene YDL078C", "setting": "yeast gene YDL078C, ratio of DNA chip fluorescence intensity to that without chemical substance", "value": 1.0},
      {"measurement": "The level of expressed mRNA in the presence of chemical substance/ (in its absence), gene YDL215C", "setting": "yeast gene YDL215C, ratio of DNA chip fluorescence intensity to that without chemical substance", "value": 1.5},
      {"measurement": "The level of expressed mRNA in the presence of chemical substance/The level of expressed mRNA in the absence of chemical substance", "setting": "yeast gene YDL238C", "value": 2.0},
      {"measurement": "The level of expressed mRNA in the presence of chemical substance/The level of expressed mRNA in the absence of chemical substance", "setting": "yeast gene YDR055W", "value": 3.1},
      {"measurement": "The level of expressed mRNA in the presence of chemical substance/ (in its absence), gene YDR073W", "setting": "yeast gene YDR073W, ratio of DNA chip fluorescence intensity to that without chemical substance", "value": 0.6},
      {"measurement": "The level of expressed mRNA in the presence of chemical substance/ in its absence, gene YDR079W", "setting": "yeast gene YDR079W, energy system protein genes, 2 h culture with the chemical, ratio to control without chemical", "value": 1.3},
      {"measurement": "The level of expressed mRNA in the presence of chemical substance/ (ratio to absence), gene YDR079W", "setting": "yeast gene YDR079W, mitochondria-located protein genes, 2 h culture with chemical", "value": 1.3},
      {"measurement": "The level of expressed mRNA in the presence of chemical substance/The level of expressed mRNA in the absence of chemical substance", "setting": "yeast gene YDR084C", "value": 1.0},
      {"measurement": "The level of expressed mRNA in the presence of chemical substance/The level of expressed mRNA in the absence of chemical substance", "setting": "yeast gene YDR085C", "value": 1.1},
      {"measurement": "The level of expressed mRNA in the presence of chemical substance/The level of expressed mRNA in the absence of chemical substance", "setting": "yeast gene YDR104C", "value": 1.6},
      {"measurement": "The level of expressed mRNA in the presence of chemical substance/The level of expressed mRNA in the absence of chemical substance", "setting": "yeast gene YDR115W", "value": 1.1},
      {"measurement": "The level of expressed mRNA in the presence of chemical substance/The level of expressed mRNA in the absence of chemical substance", "setting": "yeast gene YDR259C", "value": 2.0},
      {"measurement": "The level of expressed mRNA in the presence of chemical substance/ (in its absence), gene YDR297W", "setting": "yeast gene YDR297W, ratio of DNA chip fluorescence intensity to that without chemical substance", "value": 0.8},
      {"measurement": "The level of expressed mRNA in the presence of chemical substance/The level of expressed mRNA in the absence of chemical substance", "setting": "yeast gene YDR315C", "value": 1.6},
      {"measurement": "The level of expressed mRNA in the presence of chemical substance/The level of expressed mRNA in the absence of chemical substance", "setting": "yeast gene YDR358W", "value": 3.2},
      {"measurement": "The level of expressed mRNA in the presence of chemical substance/ (ratio to absence), gene YDR377W", "setting": "yeast gene YDR377W, mitochondria-located protein genes, 2 h culture with chemical", "value": 0.7},
      {"measurement": "The level of expressed mRNA in the presence of chemical substance/ (in its absence), gene YDR387C", "setting": "yeast gene YDR387C, ratio of DNA chip fluorescence intensity to that without chemical substance", "value": 1.3},
      {"measurement": "The level of expressed mRNA in the presence of chemical substance/The level of expressed mRNA in the absence of chemical substance", "setting": "yeast gene YDR388W", "value": 1.7},
      {"measurement": "The level of expressed mRNA in the presence of chemical substance/The level of expressed mRNA in the absence of chemical substance", "setting": "yeast gene YDR432W", "value": 1.4},
      {"measurement": "The level of expressed mRNA in the presence of chemical substance/The level of expressed mRNA in the absence of chemical substance", "setting": "yeast gene YDR481C", "value": 1.5},
      {"measurement": "The level of expressed mRNA in the presence of chemical substance/The level of expressed mRNA in the absence of chemical substance", "setting": "yeast gene YDR510W", "value": 2.0},
      {"measurement": "The level of expressed mRNA in the presence of chemical substance/ (ratio to absence of chemical substance)", "setting": "yeast gene YEL039C", "value": 0.5},
      {"measurement": "The level of expressed mRNA in the presence of chemical substance/The level of expressed mRNA in the absence of chemical substance", "setting": "yeast gene YEL042W", "value": 0.4},
      {"measurement": "The level of expressed mRNA in the presence of chemical substance/The level of expressed mRNA in the absence of chemical substance", "setting": "yeast gene YEL066W", "value": 1.6},
      {"measurement": "The level of expressed mRNA in the presence of chemical substance/ (in its absence), gene YER015W", "setting": "yeast gene YER015W, ratio of DNA chip fluorescence intensity to that without chemical substance", "value": 0.8},
      {"measurement": "The level of expressed mRNA in the presence of chemical substance/The level of expressed mRNA in the absence of chemical substance", "setting": "yeast gene YER039C", "value": 2.1},
      {"measurement": "The level of expressed mRNA in the presence of chemical substance/ (ratio to absence of chemical substance)", "setting": "yeast gene YER057C", "value": 1.0},
      {"measurement": "The level of expressed mRNA in the presence of chemical substance/The level of expressed mRNA in the absence of chemical substance", "setting": "yeast gene YER107C", "value": 0.9},
      {"measurement": "The level of expressed mRNA in the presence of chemical substance/The level of expressed mRNA in the absence of chemical substance", "setting": "yeast gene YER130C", "value": 1.6},
      {"measurement": "The level of expressed mRNA in the presence of chemical substance/The level of expressed mRNA in the absence of chemical substance", "setting": "yeast gene YFL028C", "value": 1.4},
      {"measurement": "The level of expressed mRNA in the presence of chemical substance/The level of expressed mRNA in the absence of chemical substance", "setting": "yeast gene YFL043C", "value": 1.5},
      {"measurement": "The level of expressed mRNA in the presence of chemical substance/ (in its absence), gene YGL035C", "setting": "yeast gene YGL035C, ratio of DNA chip fluorescence intensity to that without chemical substance", "value": 1.1},
      {"measurement": "The level of expressed mRNA in the presence of chemical substance/ (in its absence), gene YGL115W", "setting": "yeast gene YGL115W, ratio of DNA chip fluorescence intensity to that without chemical substance", "value": 0.7},
      {"measurement": "The level of expressed mRNA in the presence of chemical substance/ (ratio to absence of chemical substance)", "setting": "yeast gene YGL115W", "value": 0.7},
      {"measurement": "The level of expressed mRNA in the presence of chemical substance/The level of expressed mRNA in the absence of chemical substance", "setting": "yeast gene YGL158W", "value": 1.0},
      {"measurement": "The level of expressed mRNA in the presence of chemical substance/ (ratio to absence), gene YGL187C", "setting": "yeast gene YGL187C, mitochondria-located protein genes, 2 h culture with chemical", "value": 0.7},
      {"measurement": "The level of expressed mRNA in the presence of chemical substance/ (in its absence), gene YGL205W", "setting": "yeast gene YGL205W, ratio of DNA chip fluorescence intensity to that without chemical substance", "value": 1.0},
      {"measurement": "The level of expressed mRNA in the presence of chemical substance/The level of expressed mRNA in the absence of chemical substance", "setting": "yeast gene YGL229C", "value": 1.7},
      {"measurement": "The level of expressed mRNA in the presence of chemical substance/ in its absence, gene YGR062C", "setting": "yeast gene YGR062C, energy system protein genes, 2 h culture with the chemical, ratio to control without chemical", "value": 1.5},
      {"measurement": "The level of expressed mRNA in the presence of chemical substance/ (ratio to absence), gene YGR062C", "setting": "yeast gene YGR062C, mitochondria-located protein genes, 2 h culture with chemical", "value": 1.5},
      {"measurement": "The level of expressed mRNA in the presence of chemical substance/ (in its absence), gene YGR096W", "setting": "yeast gene YGR096W, ratio of DNA chip fluorescence intensity to that without chemical substance", "value": 1.1},
      {"measurement": "The level of expressed mRNA in the presence of chemical substance/The level of expressed mRNA in the absence of chemical substance", "setting": "yeast gene YGR136W", "value": 1.7},
      {"measurement": "The level of expressed mRNA in the presence of chemical substance/The level of expressed mRNA in the absence of chemical substance", "setting": "yeast gene YGR189C", "value": 1.2},
      {"measurement": "The level of expressed mRNA in the presence of chemical substance/The level of expressed mRNA in the absence of chemical substance", "setting": "yeast gene YGR213C", "value": 30.4},
      {"measurement": "The level of expressed mRNA in the presence of chemical substance/The level of expressed mRNA in the absence of chemical substance", "setting": "yeast gene YGR257C", "value": 2.0},
      {"measurement": "The level of expressed mRNA in the presence of chemical substance/ (in its absence), gene YGR287C", "setting": "yeast gene YGR287C, ratio of DNA chip fluorescence intensity to that without chemical substance", "value": 1.7},
      {"measurement": "The level of expressed mRNA in the presence of chemical substance/ (in its absence), gene YGR288W", "setting": "yeast gene YGR288W, ratio of DNA chip fluorescence intensity to that without chemical substance", "value": 1.3},
      {"measurement": "The level of expressed mRNA in the presence of chemical substance/ (ratio to absence of chemical substance)", "setting": "yeast gene YHL028W", "value": 2.1},
      {"measurement": "The level of expressed mRNA in the presence of chemical substance/ (ratio to absence of chemical substance)", "setting": "yeast gene YHL046C", "value": 1.4},
      {"measurement": "The level of expressed mRNA in the presence of chemical substance/The level of expressed mRNA in the absence of chemical substance", "setting": "yeast gene YHR004C", "value": 1.1},
      {"measurement": "The level of expressed mRNA in the presence of chemical substance/The level of expressed mRNA in the absence of chemical substance", "setting": "yeast gene YHR071W", "value": 2.3},
      {"measurement": "The level of expressed mRNA in the presence of chemical substance/The level of expressed mRNA in the absence of chemical substance", "setting": "yeast gene YHR139C", "value": 7.0},
      {"measurement": "The level of expressed mRNA in the presence of chemical substance/The level of expressed mRNA in the absence of chemical substance", "setting": "yeast gene YHR142W", "value": 1.2},
      {"measurement": "The level of expressed mRNA in the presence of chemical substance/ (in its absence), gene YHR210C", "setting": "yeast gene YHR210C, ratio of DNA chip fluorescence intensity to that without chemical substance", "value": 0.4},
      {"measurement": "The level of expressed mRNA in the presence of chemical substance/ (in its absence), gene YIL006W", "setting": "yeast gene YIL006W, ratio of DNA chip fluorescence intensity to that without chemical substance", "value": 0.8},
      {"measurement": "The level of expressed mRNA in the presence of chemical substance/ (ratio to absence of chemical substance)", "setting": "yeast gene YIL011W", "value": 0.5},
      {"measurement": "The level of expressed mRNA in the presence of chemical substance/The level of expressed mRNA in the absence of chemical substance", "setting": "yeast gene YIL123W", "value": 0.4}
    ]}
  ]
}
